Among the test systems are RXF 393 renal; KM12 colon; M14 melanoma; OVCAR-3 ovarian; SF-268 CNS; SR leukemia; HS 578T breast; UO-31 renal.
Experiment in all cases: NCI-60 cell line screen, 48 h

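Assay format: 96-well plates, 48-hour exposure. GI50 is the concentration that inhibits growth by half. Definition used: TGI = concentration required for complete inhibition of growth.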

With `C[C@@]1(c2ncncc2F)NC(=O)c2cc(-c3cn[nH]c3)ccc21`, the GI50 with RXF 393 renal was 15.2 µM; with KM12 colon, 29.6 µM; with M14 melanoma it was 15.2 µM; in the assay with OVCAR-3 ovarian, 21.9 µM; in the assay on SF-268 CNS, 28.4 µM; with SR leukemia it was 15.6 µM. In addition, the GI50 was 23 µM in the assay on HS 578T breast and 17.2 µM in the assay on UO-31 renal. The TGI is 37.3 µM in the assay on RXF 393 renal; > 100 µM in the assay with KM12 colon; 77.7 µM in the assay with M14 melanoma; > 100 µM in the assay on OVCAR-3 ovarian; > 100 µM in the assay with SF-268 CNS; > 100 µM in the assay on SR leukemia. Further, the figures for the TGI with HS 578T breast and in the assay with UO-31 renal were > 100 µM and 72.8 µM, respectively.
With `CS(=O)c1ccc(-c2nc(-c3ccc(F)cc3)c(-c3ccncc3)[nH]2)cc1` (stereo not drawn), the GI50 in the assay on RXF 393 renal is 15.7 µM; in the assay with KM12 colon, 35.9 µM; in the assay on M14 melanoma, 11.3 µM; in the assay with OVCAR-3 ovarian it was 25.9 µM; in the assay with SF-268 CNS, 49.4 µM; in the assay on SR leukemia, 16.4 µM. In addition, the figures for the GI50 in the assay on HS 578T breast and in the assay on UO-31 renal were 33.3 µM and 20.1 µM, respectively. Further, the TGI was 39.3 µM in the assay on RXF 393 renal; > 100 µM with KM12 colon; 43.3 µM with M14 melanoma; > 100 µM in the assay with OVCAR-3 ovarian; > 100 µM in the assay on SF-268 CNS; > 77 µM with SR leukemia. The TGI in the assay with HS 578T breast was > 100 µM; in the assay with UO-31 renal, > 79.6 µM.
Regarding `O=C(Nc1cccc2cccnc12)c1ccc(N2C(=O)[C@@H]3[C@H](C2=O)[C@@H]2C=C[C@H]3C2)cc1`, the GI50 is 30.8 µM in the assay on RXF 393 renal; 30.9 µM in the assay with KM12 colon; 34.9 µM in the assay on M14 melanoma; 20.7 µM in the assay on OVCAR-3 ovarian; 35.7 µM with SF-268 CNS; 30 µM in the assay with SR leukemia. Moreover, the figures for the GI50 in the assay on HS 578T breast and in the assay with UO-31 renal were 40.8 µM and 3.1 µM, respectively. For the same compound, the TGI in the assay with RXF 393 renal, in the assay with KM12 colon, in the assay with M14 melanoma, in the assay on OVCAR-3 ovarian, in the assay with SF-268 CNS and in the assay with SR leukemia was > 100 µM in each case. In addition, the TGI in the assay with HS 578T breast and in the assay with UO-31 renal was > 100 µM each time.
Regarding `O=C1NC(=O)C2(CCC(O)C2)c2cc[n+]([O-])cc21` (stereo not drawn), the TGI with RXF 393 renal, in the assay on KM12 colon, in the assay with M14 melanoma, in the assay on OVCAR-3 ovarian, in the assay on SF-268 CNS and in the assay on SR leukemia was > 100 µM in each case. Further, the TGI with HS 578T breast and with UO-31 renal was > 100 µM in each case.
Take `O=C(c1ccco1)c1c(C(F)(F)F)nc2cc(C(F)(F)F)ccc2[n+]1[O-]`: the GI50 in the assay on RXF 393 renal was 20.3 µM; in the assay on KM12 colon, > 100 µM; with M14 melanoma, > 100 µM; in the assay on OVCAR-3 ovarian it was 37.8 µM; in the assay with SF-268 CNS, 24.6 µM; with SR leukemia, 33.7 µM. Besides, the GI50 was 26.7 µM in the assay on HS 578T breast and 66.9 µM in the assay with UO-31 renal. Further, the TGI in the assay with RXF 393 renal was 80 µM; in the assay with KM12 colon it was > 100 µM; in the assay on M14 melanoma it was > 100 µM; in the assay on OVCAR-3 ovarian it was > 100 µM; in the assay with SF-268 CNS it was 81.3 µM; in the assay on SR leukemia, > 100 µM. The values for the TGI with HS 578T breast and in the assay on UO-31 renal were 74.9 µM and > 100 µM, respectively.
For the compound `CC12CCc3ccccc3C1=Nc1ccccc12` (stereo not drawn), the TGI in the assay on RXF 393 renal is > 100 µM; in the assay with KM12 colon, 91.9 µM; in the assay on M14 melanoma, > 100 µM; in the assay on OVCAR-3 ovarian it was 66.5 µM; with SF-268 CNS, > 100 µM; in the assay on SR leukemia it was > 100 µM. The results for the TGI with HS 578T breast and in the assay with UO-31 renal were 46.7 µM and > 100 µM, respectively.
For the compound `CCOC(=O)c1c(C)n(CC(C)C)c2c1cc1oc(=O)c(=O)n3cnc2c13`, the GI50 in the assay on RXF 393 renal is 12.9 µM; with KM12 colon, 13.6 µM; with M14 melanoma it was 16.9 µM; in the assay on OVCAR-3 ovarian, 11.2 µM; in the assay with SF-268 CNS, 18 µM; with SR leukemia, 10.4 µM. For the same compound, the figures for the GI50 with HS 578T breast and with UO-31 renal were 11.8 µM and 20.7 µM, respectively. The TGI was 49.7 µM in the assay on RXF 393 renal; 38.3 µM in the assay on KM12 colon; > 50 µM with M14 melanoma; 25.9 µM with OVCAR-3 ovarian; > 50 µM in the assay on SF-268 CNS; > 50 µM with SR leukemia. Besides, the TGI with HS 578T breast is 38.5 µM; in the assay with UO-31 renal, > 50 µM.
As for `O=C1/C(=C/c2ccc([N+](=O)[O-])s2)Oc2ccccc21`, the GI50 in the assay with RXF 393 renal is 1.1 µM; in the assay on KM12 colon, 0.352 µM; in the assay on M14 melanoma, 1.17 µM; with OVCAR-3 ovarian, 0.25 µM; in the assay with SF-268 CNS it was 0.367 µM; in the assay on SR leukemia, 0.216 µM. The GI50 with HS 578T breast is 0.882 µM; in the assay on UO-31 renal, 0.323 µM. For the same compound, the TGI turned out to be 2.85 µM in the assay on RXF 393 renal; 1.28 µM in the assay with KM12 colon; 3.57 µM with M14 melanoma; 0.55 µM with OVCAR-3 ovarian; 1.5 µM with SF-268 CNS; 0.759 µM in the assay on SR leukemia. Moreover, the TGI in the assay on HS 578T breast is > 48.6 µM; in the assay on UO-31 renal, 2.13 µM.
For the compound `CCCCCC(=O)OCC(=O)O[C@@H]1C[C@]2(C(C)C)O[C@@]1(C)[C@@H]1CC[C@@H](C)[C@H]1[C@@H]2OC(=O)/C=C/c1ccccc1`, the GI50 with RXF 393 renal was 0.127 µM; with KM12 colon, > 78.5 µM; in the assay with M14 melanoma it was > 53.4 µM; in the assay on OVCAR-3 ovarian, > 46.6 µM; in the assay on SF-268 CNS, 4.08 µM; in the assay with SR leukemia, 19.7 µM. Further, in the assay on UO-31 renal, the GI50 is 0.0408 µM. Also, the TGI in the assay on RXF 393 renal is > 6.51 µM; with KM12 colon, > 100 µM; in the assay on M14 melanoma, > 100 µM; in the assay on OVCAR-3 ovarian, > 67.3 µM; in the assay with SF-268 CNS, > 84.7 µM; with SR leukemia, > 100 µM. For the same compound, the TGI in the assay on HS 578T breast is 0.0315 µM; in the assay on UO-31 renal, 0.254 µM.
Regarding `C#CCOc1ccc2ncnc(Nc3ccc(NC(=O)CCl)cc3)c2c1`, the GI50 in the assay on RXF 393 renal is 4.64 µM; in the assay with KM12 colon, 8.54 µM; in the assay with M14 melanoma, 9.4 µM; in the assay on OVCAR-3 ovarian it was 4.68 µM; in the assay on SF-268 CNS, 4.67 µM; with SR leukemia, 2.69 µM. Moreover, the values for the GI50 in the assay with HS 578T breast and in the assay on UO-31 renal were 5.61 µM and 8.45 µM, respectively. Moreover, the TGI with RXF 393 renal is 17.9 µM; with KM12 colon it was 23.7 µM; in the assay on M14 melanoma, 27.7 µM; in the assay with OVCAR-3 ovarian, 17.2 µM; with SF-268 CNS, 22.3 µM; in the assay on SR leukemia, 15 µM. In addition, the TGI was found to be 61.7 µM in the assay with HS 578T breast and 22.2 µM in the assay with UO-31 renal.

The values are drawn from PubChem BioAssay (NCI).
